Laboratory results reported in patent publication US20230382871A1, “CSF1R KINASE INHIBITOR AND USE THEREOF” (SHANGHAI INSTITUTE OF MATERIA MEDICA, CHINESE ACADEMY OF …, priority 2020, published 2023).
Where “and” joins values, the source holds several entries; their conditions need not be identical. Equal entries are not always repeated.

Experiments:
[1] = test system: human glioma U87MG brain in situ transplantation; assay: Survival in U87MG brain in situ transplantation model in nude mice; format: in vivo, BALB/cA nude mice; conditions: for ILS (%), Increase in Life Span: vs solvent group MST
[2] = test system: macrophage marker F4/80 in U87MG tumor tissues; assay: Immunohistochemistry of macrophage marker F4/80 in U87MG tumor tissues; format: in vivo, nude mice; conditions: 40 mg/kg, compared with blank preparation group
Method: At the end of the in vivo experiments, U87MG and HT-29 xenografts in nude mice were removed and fixed with […] to prepare paraffin sections.
Expression of individual proteins was assessed using multiplicative quick score method (MQS). This evaluation method takes into account both the staining intensity and the staining range. The method estimates the proportion of positive cells and gives a range score from 1 to 6 (1=1%-4%; 2=5%-19%; 3=20%-39%; 4=40%-59%; 5=60%-79%; 6=80%-100%). The average intensity score of positive stained cells was 0 to 3 (0=no staining; 1=weak staining; 2=moderate staining; 3=strong staining). The total score a (minimum 0 and maximum 18) is then calculated by multiplying the range score by the intensity score.
For detecting the changes in the macrophage marker F4/80 and M2-type macrophage marker CD206 in the U87MG tumor tissues, quantitative analysis (solvent: n=6, blank preparation: n=6, Compound I (10 mg/kg): n=6, Compound I (20 mg/kg): n=6, Compound I (40 mg/kg): n=6, Axitinib: n=4) was performed on all sections and the experimental data were analyzed for significant differences using the t-test. * denotes p<0.05 as compared with the blank preparation group, ** denotes p<0.01 as compared with the blank preparation group, and denotes p<0.001 as compared with the blank preparation group.

[3] = test system: human glioma U87MG subcutaneous xenografts; assay: Human glioma U87MG subcutaneous xenografts in nude mice; format: in vivo, BALB/c nude mice; conditions: for Body Weight (g) D 21 / RTV (mean ± SD) / TV (mm^3, mean ± SD) D 21: D 21; for T/C (%): Day 21
Method: BALB/c nude female mice of 3-4 weeks old were used, and were provided by […] […] OF MATERIA MEDICA, CHINESE ACADEMY OF SCIENCES.
Human glioma U87MG cells were subcutaneously inoculated into the right axillary fossa of a nude mouse (5×10^6 cells/mouse). After a xenograft was formed, the tumor was transferred to a nude mouse for 1 passage.
Tumor tissues at the vigorous growth stage were removed and cut into pieces of approximately 1.5 mm^3. The tumor fragments were inoculated subcutaneously into the right axillary fossa of nude mice under aseptic conditions. The diameters of the subcutaneous xenografts in nude mice were measured with a vernier caliper. The animals were randomly grouped after the xenografts reached an average volume of about 90 mm^3. Compound I was administered orally at doses of 40 mg/kg, 20 mg/kg and 10 mg/kg twice a day for 21 consecutive days. An equal volume of a blank preparation was administered orally twice a day for 21 consecutive days. The positive control drug Axitinib was administered orally at a dose of 40 mg/kg group twice a day for 21 consecutive days. An equal volume of water for injection was administered to the animals in the solvent group. Throughout the experiment, the diameters of the xenografts were measured twice a week and the mice were weighed at the same time. The tumor volume (TV) was calculated as TV=½×a×b^2, where “a” and “b” denote the length and width of a tumor, respectively. The relative tumor volume (RTV) was calculated from the measurement results with the calculation formula RTV=Vt/V0, in which V0 is the tumor volume measured upon administration after grouping (i.e., D0) and Vt is the tumor volume from each measurement. The evaluation index of anti-tumor activity is the relative tumor proliferation rate T/C (%), which is calculated as T/C (%)=(TRTV/CRTV)×100%, in which TRTV denotes the RTV from the treatment group and CRTV denotes the RTV from solvent group.

[4] = 40 mg/kg, implantation day as Day 0

## Cc1cc(NC(=O)c2cccc3cc(-c4cccc5[nH]nc(N)c45)ccc23)ccc1F [Compound I]
[1]; 20 mg/kg po twice a day from Day 8
  Median survival time, MST: 54 days and 54.0 days
[1]; 20 mg/kg
  ILS (%), Increase in Life Span: 17.39%
[1]; 40 mg/kg po twice a day from Day 8
  Median survival time, MST: 58.5 days
[1]; [4]
  day of first death in the group: 43 days
  day of last death in the group: 75 days
[1]; 40 mg/kg
  ILS (%), Increase in Life Span: 27.17%
[2]
  expression of F4/80 in macrophages, U87MG tumor tissue: significantly reduced
[3]; 10 mg/kg bid × 21 po
  Body Weight (g) D 0: 15.7 g
  TV (mm^3, mean ± SD) D 0: 87 ± 17 mm^3
  Body Weight (g) D 21: 17.3 g
  RTV (mean ± SD): 3.57 ± 1.06
  TV (mm^3, mean ± SD) D 21: 302 ± 72 mm^3
  T/C (%): 11.91%
[3]; 20 mg/kg bid × 21 po
  Body Weight (g) D 0: 16.7 g
  TV (mm^3, mean ± SD) D 0: 87 ± 17 mm^3
  Body Weight (g) D 21: 16.9 g
  RTV (mean ± SD): 2.44 ± 1.58
  TV (mm^3, mean ± SD) D 21: 200 ± 100 mm^3
  T/C (%): 8.14%
[3]; 40 mg/kg bid × 21 po
  Body Weight (g) D 0: 17.0 g
  TV (mm^3, mean ± SD) D 0: 87 ± 15 mm^3
  Body Weight (g) D 21: 17.6 g
  RTV (mean ± SD): 2.93 ± 0.50
  TV (mm^3, mean ± SD) D 21: 251 ± 37 mm^3
  T/C (%): 9.77%
